Like-named read-outs stand apart in the source and are kept apart here. Positions of bridges follow the written chain, without caps; N, C: chain ends. Non-standard residues stand in square brackets, D forms with d. Residues, ends and D or L forms follow the SMILES beside them. Phe(4-CF3) = N[C@@H](Cc1ccc(C(F)(F)F)cc1)C(=O)O
What was measured:
Assay in all cases: cell-based
[1] = molecular target: hNav1.7 (Homo sapiens, UniProt Q15858); assay type: cell-based; settings: IonWorks Quattro, read-out: IWQ Use Nav1.7
[2] = molecular target: hNav1.5 (Homo sapiens, UniProt Q14524); settings: IonWorks Quattro, read-out: IWQ Use Nav1.5
[3] = molecular target: hNav1.3 (Homo sapiens, UniProt Q9NY46); settings: IonWorks Quattro, read-out: IWQ Use Nav1.3
[4] = use-dependent protocol, hNav1.7
[5] = use-dependent protocol, hNav1.5
[6] = use-dependent protocol, hNav1.3

hNav1.5, sequence (Q14524 whole entry, looked up): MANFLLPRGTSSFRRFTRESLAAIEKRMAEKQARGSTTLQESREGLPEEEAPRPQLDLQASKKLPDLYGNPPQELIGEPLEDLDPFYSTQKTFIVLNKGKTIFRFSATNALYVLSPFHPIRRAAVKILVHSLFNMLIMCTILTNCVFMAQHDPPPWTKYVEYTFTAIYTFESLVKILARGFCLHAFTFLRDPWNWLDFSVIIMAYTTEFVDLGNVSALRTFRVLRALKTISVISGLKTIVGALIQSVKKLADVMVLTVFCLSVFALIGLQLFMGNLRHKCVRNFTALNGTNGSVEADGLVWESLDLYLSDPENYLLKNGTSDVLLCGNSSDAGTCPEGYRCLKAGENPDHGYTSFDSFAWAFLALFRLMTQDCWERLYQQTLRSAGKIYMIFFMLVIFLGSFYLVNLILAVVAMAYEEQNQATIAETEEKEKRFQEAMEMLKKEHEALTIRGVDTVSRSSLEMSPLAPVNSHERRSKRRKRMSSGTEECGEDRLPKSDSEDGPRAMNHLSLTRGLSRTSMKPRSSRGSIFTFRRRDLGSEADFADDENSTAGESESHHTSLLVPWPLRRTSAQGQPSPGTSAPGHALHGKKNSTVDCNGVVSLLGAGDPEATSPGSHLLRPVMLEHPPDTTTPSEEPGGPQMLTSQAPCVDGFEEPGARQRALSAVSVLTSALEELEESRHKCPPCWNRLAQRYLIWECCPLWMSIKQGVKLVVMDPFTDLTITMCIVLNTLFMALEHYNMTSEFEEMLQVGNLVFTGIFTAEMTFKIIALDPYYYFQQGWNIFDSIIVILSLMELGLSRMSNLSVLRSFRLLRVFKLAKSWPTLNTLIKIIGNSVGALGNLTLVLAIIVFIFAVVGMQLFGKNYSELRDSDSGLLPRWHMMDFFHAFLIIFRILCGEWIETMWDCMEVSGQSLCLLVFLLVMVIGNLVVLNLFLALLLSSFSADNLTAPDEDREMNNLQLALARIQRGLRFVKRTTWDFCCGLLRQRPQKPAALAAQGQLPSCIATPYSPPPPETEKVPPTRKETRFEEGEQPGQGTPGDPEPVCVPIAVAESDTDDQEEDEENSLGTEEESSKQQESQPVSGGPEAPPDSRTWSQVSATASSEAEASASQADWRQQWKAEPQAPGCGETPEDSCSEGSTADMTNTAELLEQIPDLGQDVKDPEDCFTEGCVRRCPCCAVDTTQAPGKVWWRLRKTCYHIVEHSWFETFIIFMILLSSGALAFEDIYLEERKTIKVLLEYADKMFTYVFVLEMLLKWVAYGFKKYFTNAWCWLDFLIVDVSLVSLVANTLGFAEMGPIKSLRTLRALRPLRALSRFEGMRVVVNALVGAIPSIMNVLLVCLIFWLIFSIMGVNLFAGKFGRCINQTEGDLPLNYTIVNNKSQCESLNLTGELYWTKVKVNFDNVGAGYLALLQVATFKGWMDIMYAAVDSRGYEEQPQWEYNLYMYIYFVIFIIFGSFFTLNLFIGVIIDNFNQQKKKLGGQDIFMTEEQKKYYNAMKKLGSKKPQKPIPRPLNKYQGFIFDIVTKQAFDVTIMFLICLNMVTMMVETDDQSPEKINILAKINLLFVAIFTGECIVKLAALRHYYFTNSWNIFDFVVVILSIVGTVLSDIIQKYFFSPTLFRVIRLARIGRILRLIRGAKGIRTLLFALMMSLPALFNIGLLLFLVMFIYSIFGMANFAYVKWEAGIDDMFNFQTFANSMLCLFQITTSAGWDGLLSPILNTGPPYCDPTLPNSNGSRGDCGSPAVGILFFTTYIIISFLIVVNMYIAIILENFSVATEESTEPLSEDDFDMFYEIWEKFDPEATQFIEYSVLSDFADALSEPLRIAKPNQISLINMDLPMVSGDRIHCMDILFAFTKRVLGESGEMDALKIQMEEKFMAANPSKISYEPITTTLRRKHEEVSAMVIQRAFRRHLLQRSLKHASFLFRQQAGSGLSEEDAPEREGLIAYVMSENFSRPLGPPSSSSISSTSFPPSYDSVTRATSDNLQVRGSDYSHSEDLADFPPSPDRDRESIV
hNav1.7, sequence (Q15858 whole entry, looked up): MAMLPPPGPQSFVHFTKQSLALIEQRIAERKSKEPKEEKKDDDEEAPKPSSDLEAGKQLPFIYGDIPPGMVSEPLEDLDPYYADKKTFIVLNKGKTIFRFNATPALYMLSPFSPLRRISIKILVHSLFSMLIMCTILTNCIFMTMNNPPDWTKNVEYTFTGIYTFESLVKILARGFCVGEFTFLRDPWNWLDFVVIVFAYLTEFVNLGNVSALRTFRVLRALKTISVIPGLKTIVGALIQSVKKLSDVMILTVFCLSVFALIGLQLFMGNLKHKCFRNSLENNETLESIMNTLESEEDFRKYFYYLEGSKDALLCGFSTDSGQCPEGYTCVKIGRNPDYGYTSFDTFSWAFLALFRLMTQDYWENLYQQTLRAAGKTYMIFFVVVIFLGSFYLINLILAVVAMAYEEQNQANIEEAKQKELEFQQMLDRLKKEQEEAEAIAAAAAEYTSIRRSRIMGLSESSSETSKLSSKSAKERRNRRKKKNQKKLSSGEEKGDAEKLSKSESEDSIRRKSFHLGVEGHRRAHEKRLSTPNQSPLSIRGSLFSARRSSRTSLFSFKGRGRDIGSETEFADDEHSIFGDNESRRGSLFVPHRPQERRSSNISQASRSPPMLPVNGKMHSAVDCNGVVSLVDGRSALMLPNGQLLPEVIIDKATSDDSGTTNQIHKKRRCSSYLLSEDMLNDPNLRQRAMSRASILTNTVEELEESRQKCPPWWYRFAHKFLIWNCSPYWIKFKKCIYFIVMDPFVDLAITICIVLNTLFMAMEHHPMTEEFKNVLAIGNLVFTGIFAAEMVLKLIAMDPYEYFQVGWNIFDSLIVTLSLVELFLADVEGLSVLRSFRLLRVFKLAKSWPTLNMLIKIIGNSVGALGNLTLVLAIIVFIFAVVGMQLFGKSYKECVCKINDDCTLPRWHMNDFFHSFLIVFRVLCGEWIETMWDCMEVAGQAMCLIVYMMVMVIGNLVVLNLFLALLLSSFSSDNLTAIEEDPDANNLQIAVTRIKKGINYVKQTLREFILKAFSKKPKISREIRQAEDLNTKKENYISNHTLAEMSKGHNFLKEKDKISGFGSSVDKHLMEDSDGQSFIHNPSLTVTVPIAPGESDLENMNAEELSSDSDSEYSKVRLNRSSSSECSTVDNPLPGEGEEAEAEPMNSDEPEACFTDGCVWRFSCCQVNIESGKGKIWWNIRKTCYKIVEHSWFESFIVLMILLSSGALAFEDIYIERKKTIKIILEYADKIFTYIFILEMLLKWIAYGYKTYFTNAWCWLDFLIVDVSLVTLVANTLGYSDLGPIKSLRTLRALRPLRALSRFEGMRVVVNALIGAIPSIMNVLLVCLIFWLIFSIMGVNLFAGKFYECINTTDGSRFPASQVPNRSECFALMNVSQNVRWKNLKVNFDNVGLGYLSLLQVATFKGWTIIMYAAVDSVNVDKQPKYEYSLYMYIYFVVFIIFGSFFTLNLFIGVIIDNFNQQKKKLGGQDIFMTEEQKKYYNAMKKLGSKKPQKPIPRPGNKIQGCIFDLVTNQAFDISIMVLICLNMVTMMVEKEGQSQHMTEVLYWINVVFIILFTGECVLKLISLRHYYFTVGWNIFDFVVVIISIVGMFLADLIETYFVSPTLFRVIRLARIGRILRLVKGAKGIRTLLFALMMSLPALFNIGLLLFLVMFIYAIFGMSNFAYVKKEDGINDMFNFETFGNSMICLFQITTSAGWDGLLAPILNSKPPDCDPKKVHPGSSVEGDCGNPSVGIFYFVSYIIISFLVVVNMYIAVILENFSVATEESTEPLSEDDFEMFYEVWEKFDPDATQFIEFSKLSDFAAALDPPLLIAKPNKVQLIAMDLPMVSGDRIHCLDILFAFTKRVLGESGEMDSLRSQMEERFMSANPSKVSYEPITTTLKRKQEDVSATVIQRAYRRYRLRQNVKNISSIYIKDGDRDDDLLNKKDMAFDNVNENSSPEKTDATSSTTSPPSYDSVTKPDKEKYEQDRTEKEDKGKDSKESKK

Molecule `CC[C@H](C)[C@@H]1NC(=O)[C@@H]2CSSC[C@@H]3NC(=O)[C@H](C(C)C)NC(=O)[C@H](CC(C)C)NC(=O)[C@H](CC(N)=O)NC(=O)[C@@H]4CCCN4C(=O)[C@H](CCCNC(=N)N)NC(=O)[C@H](CSSC[C@H](NC(=O)[C@@H](N)CC(=O)O)C(=O)N[C@@H](CC(C)C)C(=O)NCC(=O)N[C@@H](Cc4ccc(C(F)(F)F)cc4)C(=O)N[C@@H](Cc4ccccc4)C(=O)N[C@@H](CCCNC(=N)N)C(=O)N[C@@H](CCCCN)C(=O)N2)NC(=O)[C@H](CSSC[C@@H](C(=O)N[C@@H](CCCCN)C(=O)N[C@@H](Cc2ccc(O)cc2)C(=O)N[C@H](C(=O)N[C@@H](Cc2ccccc2)C(N)=O)C(C)C)NC(=O)[C@H](Cc2c[nH]c4ccccc24)NC(=O)[C@H](CCCCN)NC(=O)[C@H](Cc2c[nH]cn2)NC(=O)[C@H]([C@@H](C)O)NC(=O)[C@H](CCCNC(=N)N)NC(=O)[C@H](CO)NC3=O)NC(=O)[C@H](CCCCN)NC(=O)[C@H](CC(=O)O)NC(=O)[C@H](CC(N)=O)NC(=O)[C@H](CC(=O)O)NC(=O)[C@@H]2CCCN2C1=O` [compound 623] (H-DCLG[Phe(4-CF3)]FRKCIPDNDKCCRPNLVCSRTHKWCKYVF-NH2; disulfide 2-17, 9-23, 16-30) has an IC50 [1, 4] of 96 nM, an IC50 [2, 5] of 7100 nM and an IC50 [3, 6] of 13 nM.
`CC[C@H](C)[C@@H]1NC(=O)[C@@H]2CSSC[C@@H]3NC(=O)[C@H](C(C)C)NC(=O)[C@H](CC(C)C)NC(=O)[C@H](CC(N)=O)NC(=O)[C@@H]4CCCN4C(=O)[C@H](CCCNC(=N)N)NC(=O)[C@H](CSSC[C@H](NC(=O)[C@@H](N)CC(=O)O)C(=O)N[C@@H](CC(C)C)C(=O)NCC(=O)N[C@@H](C(C)C)C(=O)N[C@@H](CC(C)C)C(=O)N[C@@H](CCCNC(=N)N)C(=O)N[C@@H](CCCCN)C(=O)N2)NC(=O)[C@H](CSSC[C@@H](C(=O)N[C@@H](CCCCN)C(=O)N[C@@H](Cc2ccc(O)cc2)C(=O)N[C@H](C(=O)N[C@@H](Cc2ccccc2)C(N)=O)C(C)C)NC(=O)[C@H](Cc2c[nH]c4ccccc24)NC(=O)[C@H](CCCCN)NC(=O)[C@H](Cc2c[nH]cn2)NC(=O)[C@H]([C@@H](C)O)NC(=O)[C@H](CCCNC(=N)N)NC(=O)[C@H](CO)NC3=O)NC(=O)[C@H](CCCCN)NC(=O)[C@H](CC(=O)O)NC(=O)[C@H](CC(N)=O)NC(=O)[C@H](CC(=O)O)NC(=O)[C@@H]2CCCN2C1=O` [compound 644] (H-DCLGVLRKCIPDNDKCCRPNLVCSRTHKWCKYVF-NH2; disulfide 2-17, 9-23, 16-30) was tested, and the IC50 [1, 4] was 150 nM, the IC50 [2, 5] was > 5000 nM and the IC50 [3, 6] was 480 nM.
In the case of `CC[C@H](C)[C@@H]1NC(=O)[C@@H]2CSSC[C@@H]3NC(=O)[C@H](C(C)C)NC(=O)[C@H](CC(C)C)NC(=O)[C@H](CC(N)=O)NC(=O)[C@@H]4CCCN4C(=O)[C@H](CCCNC(=N)N)NC(=O)[C@H](CSSC[C@H](NC(=O)[C@@H](N)CC(=O)O)C(=O)N[C@@H](CC(C)C)C(=O)NCC(=O)N[C@@H](C)C(=O)N[C@@H](CC(C)C)C(=O)N[C@@H](CCCNC(=N)N)C(=O)N[C@@H](CCCCN)C(=O)N2)NC(=O)[C@H](CSSC[C@@H](C(=O)N[C@@H](CCCCN)C(=O)N[C@@H](Cc2ccc(O)cc2)C(=O)N[C@H](C(=O)N[C@@H](Cc2ccccc2)C(=O)N[C@@H](Cc2c[nH]c4ccccc24)C(=O)O)C(C)C)NC(=O)[C@H](Cc2c[nH]c4ccccc24)NC(=O)[C@H](CCCNC(=N)N)NC(=O)[C@H](Cc2c[nH]cn2)NC(=O)[C@H]([C@@H](C)O)NC(=O)[C@H](CCCNC(=N)N)NC(=O)[C@H](CO)NC3=O)NC(=O)[C@H](CCCCN)NC(=O)[C@H](CC(=O)O)NC(=O)[C@H](CC(N)=O)NC(=O)[C@H](CC(=O)O)NC(=O)[C@@H]2CCCN2C1=O` [compound 814] (H-DCLGALRKCIPDNDKCCRPNLVCSRTHRWCKYVFW-OH; disulfide 2-17, 9-23, 16-30), the IC50 ([1]; use-dependent block, hNav1.7) is reported as 600 nM, the IC50 ([2]; use-dependent block, hNav1.5) is reported as > 5000 nM and the IC50 ([3]; use-dependent block, hNav1.3) is reported as 600 nM.
In the case of `CC[C@H](C)[C@@H]1NC(=O)[C@@H]2CSSC[C@@H]3NC(=O)[C@H](C(C)C)NC(=O)[C@H](CC(C)C)NC(=O)[C@H](CC(N)=O)NC(=O)[C@@H]4CCCN4C(=O)[C@H](CCCNC(=N)N)NC(=O)[C@H](CSSC[C@H](NC(=O)[C@@H](N)CC(=O)O)C(=O)N[C@@H](CC(C)C)C(=O)NCC(=O)N[C@@H](C)C(=O)N[C@@H](Cc4ccccc4)C(=O)N[C@@H](CCCNC(=N)N)C(=O)N[C@@H](CCCCN)C(=O)N2)NC(=O)[C@H](CSSC[C@@H](C(=O)N[C@@H](CCCCN)C(=O)N[C@@H](Cc2ccc(O)cc2)C(=O)N[C@H](C(=O)N[C@@H](Cc2ccccc2)C(=O)N[C@@H](Cc2ccccc2)C(=O)O)C(C)C)NC(=O)[C@H](Cc2c[nH]c4ccccc24)NC(=O)[C@H](CCCNC(=N)N)NC(=O)[C@H](Cc2c[nH]cn2)NC(=O)[C@H]([C@@H](C)O)NC(=O)[C@H](CCCNC(=N)N)NC(=O)[C@H](CO)NC3=O)NC(=O)[C@H](CCCCN)NC(=O)[C@H](CC(=O)O)NC(=O)[C@H](CC(N)=O)NC(=O)[C@H](CC(=O)O)NC(=O)[C@@H]2CCCN2C1=O` [compound 817] (H-DCLGAFRKCIPDNDKCCRPNLVCSRTHRWCKYVFF-OH; disulfide 2-17, 9-23, 16-30), the IC50 ([1]; use-dependent block, hNav1.7) is reported as 1500 nM, the IC50 ([2]; use-dependent block, hNav1.5) is reported as > 5000 nM and the IC50 ([3]; use-dependent block, hNav1.3) is reported as 500 nM.
With `CC[C@H](C)[C@@H]1NC(=O)[C@@H]2CSSC[C@@H]3NC(=O)[C@H](C(C)C)NC(=O)[C@H](CC(C)C)NC(=O)[C@H](CC(N)=O)NC(=O)[C@@H]4CCCN4C(=O)[C@H](CCCNC(=N)N)NC(=O)[C@H](CSSC[C@H](NC(=O)[C@@H](N)CC(=O)O)C(=O)N[C@@H](CC(C)C)C(=O)NCC(=O)N[C@@H](Cc4ccccc4)C(=O)N[C@@H](CCSC)C(=O)N[C@@H](CCCNC(=N)N)C(=O)N[C@@H](CCCCN)C(=O)N2)NC(=O)[C@H](CSSC[C@@H](C(=O)N[C@@H](CCCCN)C(=O)N[C@@H](Cc2ccc(O)cc2)C(=O)N[C@H](C(=O)N[C@@H](Cc2ccccc2)C(N)=O)C(C)C)NC(=O)[C@H](Cc2c[nH]c4ccccc24)NC(=O)[C@H](CCCCN)NC(=O)[C@H](Cc2cnc[nH]2)NC(=O)[C@H]([C@@H](C)O)NC(=O)[C@H](CCCNC(=N)N)NC(=O)[C@H](CO)NC3=O)NC(=O)[C@H](CCCCN)NC(=O)[C@H](CC(=O)O)NC(=O)[C@H](Cc2c[nH]c3ccccc23)NC(=O)[C@H](CC(=O)O)NC(=O)[C@@H]2CCCN2C1=O` [compound 173] (H-DCLGFMRKCIPDWDKCCRPNLVCSRTHKWCKYVF-NH2; disulfide 2-17, 9-23, 16-30) the IC50 ([1]; Use) was 90 nM, the IC50 ([2]; Use) was 17300 nM and the IC50 ([3]; Use) was 50 nM.
Molecule `CC[C@H](C)[C@@H]1NC(=O)[C@@H]2CSSC[C@@H]3NC(=O)[C@H](C(C)C)NC(=O)[C@H](CC(C)C)NC(=O)[C@H](CC(N)=O)NC(=O)[C@@H]4CCCN4C(=O)[C@H](CCCNC(=N)N)NC(=O)[C@H](CSSC[C@H](NC(=O)[C@@H](N)CC(=O)O)C(=O)N[C@@H](CC(C)C)C(=O)NCC(=O)N[C@@H](Cc4ccccc4)C(=O)N[C@@H](CCSC)C(=O)N[C@@H](CCCNC(=N)N)C(=O)N[C@@H](CCCCN)C(=O)N2)NC(=O)[C@H](CSSC[C@@H](C(=O)N[C@@H](CCCCN)C(=O)N[C@@H](Cc2ccc(O)cc2)C(=O)N[C@H](C(=O)N[C@@H](Cc2ccc(C(=O)O)cc2)C(N)=O)C(C)C)NC(=O)[C@H](Cc2c[nH]c4ccccc24)NC(=O)[C@H](CCCCN)NC(=O)[C@H](Cc2c[nH]cn2)NC(=O)[C@H]([C@@H](C)O)NC(=O)[C@H](CCCNC(=N)N)NC(=O)[C@H](CO)NC3=O)NC(=O)[C@H](CCCCN)NC(=O)[C@H](CC(=O)O)NC(=O)[C@H](CC(N)=O)NC(=O)[C@H](CC(=O)O)NC(=O)[C@@H]2CCCN2C1=O` [compound 410] has an IC50 ([1]; use-dependent, […]) of 9190 nM, an IC50 ([2]; use-dependent, […]) of 7110 nM and an IC50 ([3]; use-dependent, […]) of 6310 nM.
